Assay results: patent US10611765B2, “Pyrrolopyrimidine derivatives as Mps1/TTK kinase inhibitors” (Ohio State Innovation Foundation, priority 2014, dated 2020)
Where two headings read alike, the source gives them in different places.

What was measured:
BT-474 = assay: MTS anti-proliferative assay, BT-474; format: cell-based; settings: BT-474, luminal B, treatment for 7 days
Experimental: (§1) The anti-proliferative effects and IC50 values of the compounds in the BC cell line panel were determined by MTS assay.
(§2) The cells, except Sk-Br-3, AU565 and BT-474 were maintained in a mixture of Dulbecco's modified Eagle's medium and Ham's F12 medium (1:1) (DMEM/F12) without phenol red supplemented with 5% fetal bovine serum (FBS) and 1× antibiotic-antimycotic (100 U/mL penicillin G sodium, 100 μg/mL streptomycin sulfate and 0.25 μg/mL amphotericin B) and were plated separately in flasks in a humidified incubator (5% CO2: 95% air, 37° C.). The media used for Sk-Br-3, AU565 and BT-474 cell lines was described in (1) Brueggemeier et al., J. Steroid Biochem. Mol. Biol., 2005; 95:129-136; and (2) Diaz-Cruz et al., J. Clin. Endocrinol. Metab., 2005; 90:2563-2570. The media were changed every 2-days. When the cells grew to about 80% confluence, cells were washed twice with calcium- and magnesium-free phosphate-buffered saline (PBS, pH 7.4), and then trypsinized with 0.05% trypsin-5.3 mm EDTA. The trypsinization was stopped by addition of culture medium with 5% FBS. After centrifugation, the dissociated cells were resuspended in the same medium and subcultured into 75-cm^2 culture flasks at a ratio of 1:5 flasks.
(§3) The BC cells were seeded at the density of 1,000 cells per well (100 μL) into 96 well plate in DMEM/F-12 (1:1), supplemented with 5% (v/v) FCS and incubated overnight at 37° C. Test compounds are solubilized in dimethyl sulfoxide (DMSO), diluted in cell culture medium to a range of final assay concentrations of 1 nM to 10 μM, added to cells and incubated for 7 days at 37° C. The medium including the test compound are refreshed at days 3 and 5. The MTS assay are carried out by using the CellTiter 96® AQueous One Solution Cell Proliferation Assay kit following the manufacturer's instruction.

BT-549 = assay: MTS anti-proliferative assay, BT-549; format: cell-based; settings: BT-549, TNBC, basal B, treatment for 7 days
Experimental: as §1, §2, §3

CAL-51 = assay: MTS anti-proliferative assay, CAL-51; format: cell-based; settings: CAL-51, TNBC, basal, treatment for 7 days
Experimental: as §1, §2, §3

[1] = system: panel of breast cancer cell lines; assay: Anti-proliferative assays, panel of BC cell lines (overall statements); format: cell-based; settings: in some or all of the cell based assays in the panel
Experimental: This example describes the development of novel small molecule Mps1/TTK inhibitors as targeted therapies for TNBC and other aggressive BC using drug discovery technologies. Using computational modeling, medicinal chemistry, biochemistry and cell culture assays, the inventors have identified novel small molecules as potential Mps1/TTK inhibitors. The compounds were evaluated in anti-proliferative assays of a panel of 15 BC cell lines and further examined for their ability to inhibit a variety of Mps1-dependent biological functions.
as §1, §2, §3

MDA-MB-468 = assay: MTS anti-proliferative assay, MDA-MB-468; format: cell-based; settings: MDA-MB-468, TNBC, basal B, treatment for 7 days
Experimental: as §1, §2, §3

Sk-Br-3 = assay: MTS anti-proliferative assay, Sk-Br-3; format: cell-based; settings: Sk-Br-3, luminal, treatment for 7 days
Experimental: as §1, §2, §3

MCF-7 = assay: MTS anti-proliferative assay, MCF-7; format: cell-based; settings: MCF-7, luminal A, treatment for 7 days
Experimental: as §1, §2, §3

MDA-MB-436 = assay: MTS anti-proliferative assay, MDA-MB-436; format: cell-based; settings: MDA-MB-436, TNBC, basal B, treatment for 7 days
Experimental: as §1
(§4) The media were changed every 2-days. When the cells grew to about 80% confluence, cells were washed twice with calcium- and magnesium-free phosphate-buffered saline (PBS, pH 7.4), and then trypsinized with 0.05% trypsin-5.3 mm EDTA. The trypsinization was stopped by addition of culture medium with 5% FBS.
as §3

AU565 = assay: MTS anti-proliferative assay, AU565; format: cell-based; settings: AU565, luminal, treatment for 7 days
Experimental: as §1, §2, §3

BT-20 = assay: MTS anti-proliferative assay, BT-20; format: cell-based; settings: BT-20, TNBC, basal A, treatment for 7 days
Experimental: as §1, §2, §3

CAMA-1 = assay: MTS anti-proliferative assay, CAMA-1; format: cell-based; settings: CAMA-1, luminal, treatment for 7 days
Experimental: as §1, §2, §3

MDA-MB-453 = assay: MTS anti-proliferative assay, MDA-MB-453; format: cell-based; settings: MDA-MB-453, luminal A, treatment for 7 days
Experimental: as §1, §4, §3

MDA-MB-231 = assay: MTS anti-proliferative assay, MDA-MB-231; format: cell-based; settings: MDA-MB-231, TNBC, basal B, treatment for 7 days
Experimental: as §1, §2, §3

[2] = target: T1, Mps1/TTK kinase (recombinant GST-Mps1) (Homo sapiens, UniProt P33981); assay: Mps1 in vitro kinase assay with Cetn2 substrate; format: biochemical
T1 sequence (P33981 1-857): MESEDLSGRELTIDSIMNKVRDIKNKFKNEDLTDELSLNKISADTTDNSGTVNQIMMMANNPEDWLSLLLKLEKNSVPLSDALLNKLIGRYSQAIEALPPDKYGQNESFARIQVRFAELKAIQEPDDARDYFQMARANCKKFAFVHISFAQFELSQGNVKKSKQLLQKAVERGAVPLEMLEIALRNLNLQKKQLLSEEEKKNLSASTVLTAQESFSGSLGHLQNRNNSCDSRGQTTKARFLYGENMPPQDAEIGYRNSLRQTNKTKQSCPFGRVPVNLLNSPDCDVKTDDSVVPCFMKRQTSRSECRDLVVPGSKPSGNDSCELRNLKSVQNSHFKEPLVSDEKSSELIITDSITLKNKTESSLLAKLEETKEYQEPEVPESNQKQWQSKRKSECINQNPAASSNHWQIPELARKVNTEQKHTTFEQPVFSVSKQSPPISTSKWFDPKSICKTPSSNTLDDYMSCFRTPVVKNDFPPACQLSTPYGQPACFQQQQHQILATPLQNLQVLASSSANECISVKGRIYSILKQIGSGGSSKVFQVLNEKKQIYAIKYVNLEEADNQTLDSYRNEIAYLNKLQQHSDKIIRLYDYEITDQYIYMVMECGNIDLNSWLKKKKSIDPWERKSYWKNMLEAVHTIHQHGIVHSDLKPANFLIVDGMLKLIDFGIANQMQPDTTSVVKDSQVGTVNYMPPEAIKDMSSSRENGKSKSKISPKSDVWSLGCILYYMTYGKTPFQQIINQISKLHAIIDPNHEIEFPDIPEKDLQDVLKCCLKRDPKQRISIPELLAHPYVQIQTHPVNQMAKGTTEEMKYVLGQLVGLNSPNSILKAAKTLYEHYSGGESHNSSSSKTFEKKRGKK
Experimental: To determine the efficacy of the compounds against Mps1/TTK kinase activity, assays were performed as previously described (11) using recombinant Mps1, Cetn2 (specific substrate), and varying concentration of compound.

HCC1937 = assay: MTS anti-proliferative assay, HCC1937; format: cell-based; settings: HCC1937, TNBC, basal, treatment for 7 days
Experimental: as §1, §2, §3

T47D = assay: MTS anti-proliferative assay, T47D; format: cell-based; settings: luminal, treatment for 7 days
Experimental: as §1, §2, §3

Hs578T = assay: MTS anti-proliferative assay, Hs578T; format: cell-based; settings: TNBC, basal B, treatment for 7 days
Experimental: as §1, §2, §3

Cal-51 cells = assay: Centriole assembly / centrosome amplification assay, Cal-51; format: cell-based; settings: Cal-51, at 10 μM
Experimental: (§5) For these cell biology assays, cells were plated onto poly-L-lysine coated coverslips in 24 well dishes using the medium and growth conditions described above, but using medium containing phenol red. At 24 hours after plating, compounds (or the equivalent amount of DMSO) were added to individual wells at various concentrations. Cells were incubated for 24 hours at 37° C. BrdU was added during the last 4 hours of the incubation, after which cells were fixed in pre-chilled methanol at −20 OC for 10 minutes, stained with centrosome markers, then treated with acid to denature chromosomal DNA prior to staining for BrdU. To assess centriole biogenesis, centriole number was determined for triplicate samples in cells that had entered S-phase as judged by incorporation of BrdU. Primary antibodies used were mouse anti-γTubulin (pericentriolar material) and rabbit anti-Centrin 2 (centrioles). Secondary antibodies used were Alexa594-conjugated donkey anti-mouse and Alexa488-conjugated donkey anti-rabbit.
For centriole assembly assays, Cal-51 and MDA-MB-468 cells were treated with candidate compounds prior to a short pulse of BrdU. Because the centriole pair is replicated at the G1/S transition, compounds that block centrosome assembly will lead to an increased number of BrdU-positive cells with two centrioles. In addition, like many breast cancer cells Cal-51 and MDA-MB-468 are capable of centrosome amplification, and compounds that block this centrosome amplification should reduce the number of BrdU-positive cells with more than four centrioles.

[3] = system: S-phase (BrdU-positive) cells; assay: Centriole number in S-phase cells (preliminary investigations); format: cell-based; settings: drug for 20 hours, then 4 hour pulse of BrdU
Experimental: as §5
For centriole assembly assays, Cal-51 and MDA-MB-468 cells were treated with candidate compounds prior to a short pulse of BrdU. Because the centriole pair is replicated at the G1/S transition, compounds that block centrosome assembly will lead to an increased number of BrdU-positive cells with two centrioles. […]

[4] = additional investigations (text to Table 2), read-out: IC50, in vitro kinase activity of Mps1
[5] = in vitro kinase assay with Cetn2 substrate, Table 2, read-out: IC50 w/Cetn 2

| Molecule | IC50 (BT-474; Homo sapiens, 168 h) | IC50 (BT-549; Homo sapiens, 168 h) | IC50 (CAL-51; Homo sapiens, 168 h) | potency as compared to Mps1-IN-1 [1] | IC50 (MDA-MB-468; Homo sapiens, 168 h) | IC50 (Sk-Br-3; Homo sapiens, 168 h) | IC50 (MCF-7; Homo sapiens, MCF7, 168 h) | IC50 (MDA-MB-436; Homo sapiens, 168 h) | IC50 (BT-20; Homo sapiens, 168 h) | IC50 (CAMA-1; Homo sapiens, 168 h) | IC50 (MDA-MB-453; Homo sapiens, 168 h) | IC50 (MDA-MB-231; Homo sapiens, 168 h) | IC50 [2, 4] | IC50 [2, 5] | IC50 (HCC1937; Homo sapiens, 168 h) | IC50 (Hs578T; Homo sapiens, Hs-578T, 168 h) | effect on centriole assembly (Cal-51 cells) | effect on centrosome amplification (Cal-51 cells) | effect on centriole assembly [3] | also measured |
| --- | --- | --- | --- | --- | --- | --- | --- | --- | --- | --- | --- | --- | --- | --- | --- | --- | --- | --- | --- | --- |
| COc1ccccc1Nc1nc(Nc2ccccc2S(=O)(=O)C(C)C)c2cc[nH]c2n1 [Compound 10, N4-(2-(isopropylsulfonyl)phenyl)-N2-(2-methoxyphenyl)-7H-pyrrolo-[2,3-d]pyrimidine-2,4-diamine] | 720 nM | 1600 nM | 1500 nM | significantly more potent | 1860 nM | 970 nM | 350 nM | 1290 nM | 50 nM | 1550 nM | > 10000 nM | 450 nM | 3400 nM | 3420 nM | 990 nM | > 10000 nM | – | – | – | IC50 (AU565; Homo sapiens, 168 h): > 10000 nM; IC50 (T47D; Homo sapiens, 168 h): 340 nM |
| COc1cc(N2CCOCC2)ccc1Nc1nc(Nc2ccccc2S(=O)(=O)C(C)C)c2cc[nH]c2n1 [Compound 11, N4-(2-(isopropylsulfonyl)phenyl)-N2-(2-methoxy-4-morpholinophenyl)-7H-pyrrolo[2,3-d]pyrimidine-2,4-diamine] | 330 nM | 1310 nM | 300 nM | significantly more potent | 360 nM | 370 nM | 400 nM | 1230 nM | 1500 nM | 780 nM | > 10000 nM | > 10000 nM | 13100 nM | 13100 nM | 1100 nM | > 10000 nM | – | – | – | – |
| COc1cc(N2CCC(O)CC2)ccc1Nc1cc(Nc2ccccc2S(=O)(=O)C(C)C)c2cc[nH]c2n1 [Mps1-IN-1, reference compound] | – | – | – | – | – | – | – | – | – | – | – | – | – | – | – | – | little effect | little effect | little effect | IC50 (BT-474): > 10000 nM; IC50 (BT-549): 2440 nM; IC50 (CAL-51): 1840 nM; IC50 (MDA-MB-468): 1850 nM; IC50 (Sk-Br-3): > 10000 nM; IC50 (MCF-7): > 10000 nM; IC50 (MDA-MB-436): > 10000 nM; IC50 (AU565): > 10000 nM; IC50 (BT-20): > 10000 nM; IC50 (CAMA-1): > 10000 nM; IC50 (MDA-MB-453): > 10000 nM; IC50 (MDA-MB-231): > 10000 nM; IC50 (HCC1937): > 10000 nM; IC50 (T47D): > 10000 nM; IC50 (Hs578T): > 10000 nM |
| AZ3146 | – | – | – | – | – | – | – | – | – | – | – | – | – | – | – | – | little effect | little effect | little effect | – |
